One may read the EC50 as the concentration at which the effect is half-maximal.

Molecules are shown by their SMILES. “And” between values parts separate entries of the source, which are not always exact repeats. Equal values may be shown once.

The values below come from US6774121B1, “Phospholipid prodrugs of anti-proliferative drugs” (D-Pharm, Ltd., priority 1999, dated 2004).

Test [1] has as its system CEM. Nature of the test: MTT cytotoxicity on tumor cell lines, CEM (Example 8). Type of test: cell-based. To be noted: CCRF-CEM, T-cell ALL (human), 72 hours. On the procedure:
(§1) Cell viability was analyzed after 72 hours incubation (37° C., 5% CO2) using the colorimetric MTT assay (Mosmann (1983) J. Immunol Methods 65: 55-63).

The subject of test [2] is Jurkat. Nature of the test: MTT cytotoxicity on tumor cell lines, Jurkat (Example 8). Type of test: cell-based. The settings on record: Homo sapiens, T-cell lymphoma, 72 hours. The method, then:
as §1

In test [3] the test system is J774. Nature of the test: MTT cytotoxicity on tumor cell lines, J774 (Example 8). Type of test: cell-based. To be noted: J774, Myeloma (mouse), 72 hours. The method, then:
as §1

Test [4] has as its system N87. Nature of the test: MTT cytotoxicity on tumor cell lines, N87 (Example 8). To be noted: N87, Gastric carcinoma (human), 72 hours. Type of test: cell-based. On the procedure: as §1
Test [5] concerns RFC-mediated MTX-resistant cell line (L1210-MTX). Nature of the test: MTT cytotoxicity, L1210-MTX cells (Example 9). Type of test: cell-based. To be noted: Mus musculus.
Test [6] concerns L1210 cells. Nature of the test: Survival of pre-treated mice after L1210 tumor cell implantation. Type of test: in vivo, mouse. The settings on record: pre-treatment 3 mg/Kg or equivalent i.p. every other day for 21 days. On the procedure:
Protection against tumor growth was examined in mice pretreated with MTX or DP-MTX-71.
At the end of this regimen, the mice were injected with 1×10^6 L1210 cells into the peritoneum. The animals were then monitored for viability for 12 days subsequent to the injection of the tumor cells.

Consider `CN(Cc1cnc2nc(N)nc(N)c2n1)c1ccc(C(=O)N[C@@H](CCC(=O)O)C(=O)O)cc1` [MTX, Methotrexate], for which the EC50 came to 21 nM in test [1]; 21 nM in test [2]; 112 nM in test [3]; 13500 nM in test [4]; 1080 nM in test [5]. In addition, the Surviving mice is 6/6 in test [6] (9 days after tumor implantation); 4/6 in test [6] (10 days after tumor implantation); 3/6 in test [6] (11 days after tumor implantation); 2 and 2/6 in test [6] (12 days after tumor implantation).
